Results as given in article PMC8486139, “A new phenothiazine derivate is active against Clostridioides difficile and shows low cytotoxicity” (PLoS ONE, 2021).
Where two headings read alike, the source gives them in different places.

Tests used:
[1] = test system: C. difficile; details: previously shown; cited from earlier work
[2] = test system: fecal bacterial count; assay: Four-day oral treatment: CFU per gram feces by 16S rRNA qPCR; format: in vivo; details: mice; for average CFU/g fecal sample after treatment: four days
[3] = test system: Caco-2 cell monolayers; assay: MTS/PMS cell proliferation (metabolic activity) assay; format: cell-based
Protocol: The cell proliferation assay (MTS/PMS; [3-(4,5-dimethylthiazol-2-yl)-5-(3-carboxymethoxyphenyl)-2-(4-sulfophenyl)-2H-tetrazolium, inner salt; MTS] and an electron coupling reagent (phenazine methosulfate) PMS) assay was performed by incubating the Caco-2 cell monolayers with 400 μL of a PMS/MTS solution in the apical compartment and 500 μL supplemented HBSS in the basolateral chamber (according to manufacturer’s instructions) for 60 minutes at 37°C and circular rotation (50 rpm). After incubation, 2×100 μL samples were taken from each monolayer and the absorbance at 492 nm in a 96-well plate.

[4] = test system: gastrointestinal microbiota; details: mice
[5] = test system: MRSA; details: cited from earlier work
[6] = test system: C. difficile ATCC 43255; assay: Minimal inhibition concentration (MIC) in 96-well microtitre plates; format: cell-based, Clostridioides difficile; details: C. difficile ATCC 43255, 24 h anaerobic incubation
Excerpt: C. difficile ATCC 43255, previously isolated from an abdominal wound, was used to assess the anti-clostridioides activity of JBC 1847. The strain was stored in reinforced clostridial medium (Oxoid, Roskilde, Denmark) in 15% glycerol at -[…] until use and grown anaerobically on ChromID® C. difficile plates (bioMérieux, Ballerup, Denmark).

[7] = test system: Methicillin resistant Staphylococcus aureus (MRSA); details: cited from earlier work
[8] = test system: C. difficile ATCC 43255; assay: Minimum bactericidal concentration (MBC), plating from MIC wells; details: C. difficile ATCC 43255, ≥3 log reduction of inoculum
Protocol: Minimum bactericidal concentration (MIC) values were defined as the lowest concentrations of test compounds causing ≥3 log reductions of the initial cell inocula (∼ 10^5 CFU/mL in the final assay). Briefly, 100 μl from each well of the MIC assay (after incubation) were plates on ChromID® plates. After incubation for 24 h, viable counts were enumerated on ChromID® plates. Both the MIC and MBC were conducted with three biological replicates.

[9] = test system: Caco-2 cell monolayers; assay: LDH release assay; format: cell-based
Protocol: For analysis of the LDH activity, the samples taken from the apical compartment after the exposure experiment were diluted 5-fold and analyzed in the LDH assay according to manufacturer’s instructions. Briefly, the assay consisted of mixing the diluted samples with different assay reagents followed by incubation at room temperature for 30 min and the absorbance at 492 nm as a measure for LDH activity. A lysate of Caco-2 monolayers (prepared by suspending Caco-2 cell monolayers in purified water) was included as a positive control for maximal response in the assay.

[10] = test system: Caco-2 cell monolayers
[11] = test system: NMRI female mice

CSc1ccc2c(c1)N(CCC1CCCCN1C)c1ccccc1S2 (stereo not shown) [Thioridazine]
antimicrobial activity against C. difficile [1]: antimicrobial activity

CC(C)=CCCC(C)CC[N+](C)(C)CCCN1c2ccccc2Sc2ccccc21 (stereo not shown) [JBC 1847]
average CFU/g fecal sample after treatment ([2]; 20 mg/kg bw): 4.4 ×10^9 CFU/g | average CFU/g fecal sample after treatment ([2]; 100 mg/kg bw): 6.8 × 10^9 CFU/g | change in CFU/g fecal sample after treatment ([2]; p = 0.51): no significant changes | MTS/PMS response vs buffer controls ([3]; 29 μg/mL): not significantly reduced | MTS/PMS response (metabolic activity) vs buffer control ([3]; 58.1 μg/mL (100 μM)): statistically significant reduction | tendency in Lactobacillus spp abundance ([4]; especially small intestine (Fig 5)): concentration-depended increase | consistency of the fecal material ([4]; exposure trial): No changes | bacterial load of MRSA in wound model [5]: highly effective in decreasing the bacterial load | MIC [6]: 4 µg/mL | MIC against MRSA compared to the mother compound, promazine [7]: lower the minimal inhibition concentration (MIC) remarkably | MBC [8]: 4 µg/mL | LDH release compared to buffer control ([9]; 29 μg/mL (50 μM)): significantly higher | LDH release compared to buffer control ([9]; 29 μg/mL (50 μM), listed as JBC1 8473): statistically significant increase | LDH release compared to buffer control ([9]; 58.1 μg/ml in Fig 3): significantly higher | LDH release compared to buffer control ([9]; 58.1 μg/ml in Fig 3, listed as JBC1 8473): statistically significant increase | effect on TEER ([10]; concentrations up to seven times MIC): did not affect the TEER negatively | cytotoxicity in Caco-2 cell-line assays ([10]; concentrations up to seven times the minimal bactericidal concentration): indication of toxicity was not observed | dose tolerated without any clinical signs of discomfort ([11]; mice, oral): up to 100 mg/kg bw | clinical score of discomfort ([11]; mouse, in vivo, 25 mg/kg): 1 | clinical score of discomfort ([11]; mouse, in vivo, 100 mg/kg): 0 | tolerance of two doses ([11]; mouse, in vivo, po, 100 mg/kg): tolerated well
